In PMC11625747, “The antipsychotic drug lurasidone inhibits coronaviruses by affecting multiple targets” (Frontiers in Cellular and Infection Microbiology, 2024):
“And” between values parts separate entries of the source, which are not always exact repeats. Equal entries are not always repeated. Where two headings read alike, the source gives them in different places.

Legend:
SARS-CoV-2 [1] = assay: microbe, parasite or virus in culture; format: cell-based
SARS-CoV-2 [2] = assay: SARS-CoV-2 virus inactivation (virucidal) assay; format: cell-based; conditions: 5 μM incubated with SARS-CoV-2 for 2 hours, Vero E6 plaque assay
[3] = Cell viability, MTT assay; format: cell-based, Human; conditions: human, HEK293-ACE2 cells, 10 µM, 24 hours administration
Procedure: (§1) HEK293-ACE2 cells were seeded (2 x 10^4 cells/well) on 96-well plates in a complete DMEM medium with 10% FBS. After incubation for 24 hours at 37°C in humidified 5% CO2, the medium was replaced with a fresh one containing lurasidone previously dissolved in Milli-Q water at 0.1 – 100 µM. Control cells were treated with an equivalent volume of vehicle only. Cells were incubated for 24 hours at 37°C in humidified 5% CO2, then the medium was replaced with a fresh one without lurasidone. After an additional incubation of 24 hours at 37°C in humidified 5% CO2, HEK293-ACE2 cells were treated with 5 mg/ml 3-(4,5-dimethylthiazol-2-yl)-2,5 diphenyltetrazolium bromide (MTT) (Sigma Aldrich, St. Louis, MO, USA, #M5655-1G) in 5 mM Phosphate Buffered Saline (PBS), pH 7.4. After incubation for 4 hours at 37°C, MTT was removed, and the cells resuspended in isopropanol containing 0.04 M HCl. The absorbance of the samples was determined at 560 nm using a spectrophotometer (Infinite M200, Tecan, Männedorf, Switzerland), and the cell viability was expressed as a percentage of Vehicle-treated cells.

HEK293-ACE2 cells = assay: Cell viability, MTT assay; format: cell-based, Human; conditions: 100 µM (maximum tested dose), 24 hours administration
Procedure: as §1

[4] = system: lentiviral vector exposing the SARS-CoV-2 Spike protein, Wuhan isoform; format: cell-based; conditions: 5 µM, 4 h pre-incubation, HEK293-ACE2, Wuhan Spike
[5] = system: lentiviral vector exposing the SARS-CoV-2 Spike protein, B.1.1.7 UK isoform; format: cell-based; conditions: 1 µM, 4 h pre-incubation, HEK293-ACE2, B.1.1.7 UK Spike
[6] = system: lentiviral vector exposing the SARS-CoV-2 Spike protein, B.1.351 SA isoform; format: cell-based; conditions: 1 or 5 µM, 4 h pre-incubation, HEK293-ACE2, B.1.351 SA Spike
[7] = system: ACE2 levels in HEK293-ACE2 cells; assay: Western blot analysis of ACE2 expression; format: cell-based, Human; conditions: 5 µM, 24 h, HEK293-ACE2 cell lysates
Procedure: HEK293-ACE2 cells were seeded (2.4 x 10^5 cells/well) on 12-well plates in complete DMEM medium with 10% FBS and incubated for 24 hours at 37°C in humidified 5% CO2. The medium was then replaced with a fresh one containing 5 µM lurasidone. Control cells were treated with an equivalent volume of vehicle only. After incubation for 3, 6, and 24 hours at 37°C in humidified 5% CO2 the medium was removed, the cells collected and lysed for 15 min at 4°C with 20 mM Tris-HCl, pH 7.5, containing 150 mM NaCl, 1 mM Na2EDTA, 1 mM EGTA, 1% NP-40, 1% sodium deoxycholate, 2.5 mM sodium pyrophosphate, 1 mM β-glycerophosphate, 1 mM Na3VO4 and 1 µg/ml leupeptin. Samples were centrifuged for 10 min at 16,100 x g and the protein content was quantified by using a BCA protein assay kit (Thermofisher, Rockford, USA). 10 µg of total proteins were loaded in each lane, immunoblotted using 10% bis-Tris gel (Invitrogen, Waltham, MA, USA), and transferred to a PVDF membrane (Millipore, Vimodrone, Milan, Italy). The membranes were incubated overnight at 4°C with an anti-ACE2 AC18Z mouse monoclonal antibody (1:200, Santa Cruz Biotechnology, Santa Cruz, CA, USA) or anti-β-actin mouse monoclonal antibody (1:5000, Sigma Aldrich). Peroxidase-conjugated anti-mouse IgG (1:5000, Sigma Aldrich) was used as the secondary antibody. Hybridization signals were detected with a ChemiDoc XRS Touch Imaging System (Bio-Rad).

[8] = molecular target: T1, recombinant human ACE2 (rhACE2) (Homo sapiens, UniProt Q9BYF1); assay: Surface plasmon resonance direct binding assay; conditions: 10 µM injected on immobilized rhACE2
T1 construct: purchased Acrobiosystem
Procedure: Recombinant human ACE2-Fc tag (rhACE2) (Acrobiosystem) at 5 μg/mL in PBST was captured on a HC30M (Xantec) sensor chip after the immobilization of anti-Fc antibody (Biorad) at 25 μg/mL in acetate buffer pH 5.0 by classic amine coupling chemistry on a NHS/EDC activated surface, reaching a final immobilization level of ~ 1000 RU. Simultaneously, a mix of IgG antibodies at 25 μg/mL in acetate buffer pH 5.0 was immobilized on a parallel surface and used as reference.
To test the direct binding of rhACE2 and lurasidone, the drug was injected at 10 µM in PBST 0.1% DMSO for 200 seconds at 30 μl/min on both surfaces. In a different channel, we also flowed SARS-CoV-2 Spike protein RBD (Wuhan isotype) at 10 nM in PBST as a positive control.

HCoV-OC43 [9] = assay: HCoV-OC43 antiviral focus reduction assay; format: cell-based
Procedure: The antiviral efficacy of lurasidone was determined by focus reduction assay, as described elsewhere ([Milani et al., 2021]). Briefly, MRC-5 sub-confluent cells in 96-well plates were infected with HCoV-OC43 at a multiplicity of infection (MOI) of 0.001 FFU/cell and concurrently treated with increasing concentrations of drug (100 to 0.12 µM). After incubation at 34°C for 16 hours, infected foci were visualized with an indirect immunocytochemistry procedure, using a primary antibody directed against the nucleoprotein of HCoV-OC43 (MAB9013, Merck KGaA, Darmstadt, Germany) or a primary antibody directed against the dsRNA (10010500, Nordic-MUbio, Susteren, Netherlands).
(§2) All data were analyzed with GraphPad Prism version 8.00 software. Results were expressed as mean values for three independent experiments performed in duplicate. […] Selectivity indexes were calculated as SI = CC50/EC50. The Student’s T-test was used to compare viral titers in virus inactivation assay. The viral titers of control and treated samples in time-of-addition assays were compared using a one-way analysis of variance (ANOVA) and a post-hoc Bonferroni test. Significance was set at p value <0.05 (*), <0.01 (**) and <0.001 (***).

[10] = Cell viability assay on MRC-5 cells; format: cell-based; conditions: human, same conditions as antiviral assay
Procedure: Pre-seeded MRC-5 cells were treated with the drug at concentrations ranging from 1000 to 12.3 μM or equal volumes of DMSO as control, under the same experimental conditions for the antiviral assays. After incubation, the CellTiter 96 Proliferation Assay Kit (Promega, Madison, WI, USA) was used to determine the effect of lurasidone on cell viability. The effect on cell viability was expressed as a percentage, by comparing absorbances of treated cells with those of cells incubated with DMSO-treated control wells.
as §2

HCoV-OC43 [11] = assay: HCoV-OC43 time-of-addition assay; format: cell-based; conditions: 50 µM; for antiviral activity, virus released in supernatant: MRC-5, MOI 0.1, 24 hours post-infection
HCoV-OC43 [12] = assay: HCoV-OC43 virus inactivation assay; format: cell-based; conditions: 50 µM with 10^5 FFU for 2 h at 34°C
HCoV-OC43 [13] = assay: HCoV-OC43 entry assay; format: cell-based; conditions: 100-0.4 μM during virus entry, MRC-5, MOI 0.05
Procedure: The assay evaluates whether the drug inhibits the entry of virus into host cells. First, a fixed inoculum of HCoV-OC43 at MOI of 0.05 was allowed to attach to prechilled confluent cells, for 20 min at 4°C. Cells were then washed with cold medium three times to remove unbound virus, treated with serial dilutions of lurasidone (from 100 to 0.4 μM), and incubated for 1 h at 34°C to allow virus entry. After incubation, outer virions were removed with a 30 second treatment of citrate buffer (pH 3.0). Then, cells were washed with warm medium three times and treated as for the antiviral assay.

PL-Pro SARS-CoV-2 = molecular target: T2, PL-Pro SARS-CoV-2 (Severe acute respiratory syndrome coronavirus 2, UniProt P0DTD1); assay: Biochemical assay for SARS-CoV-2 PL-Pro
T2 construct: purified recombinant SARS-CoV-2 RdRp, 3CL-Pro and PL-Pro proteins

RdRp SARS-CoV-2 = molecular target: T3, RdRp SARS-CoV-2 (Severe acute respiratory syndrome coronavirus 2, UniProt P0DTD1); assay: biochemical
T3 construct: SARS-CoV-2 RdRp was expressed and purified as described; made in house

3CL-Pro SARS-CoV-2 = molecular target: T4, 3CL-Pro SARS-CoV-2 (Severe acute respiratory syndrome coronavirus 2, UniProt P0DTD1); assay: biochemical
T4 construct: The SARS-CoV-2 nsp5 protease activity was measured in black 384 well plates

[14] = set-up: method as in Bawa and Scarff, 2015; conditions: patients, minimal changes in the metabolic profile; ref Bawa and Scarff, 2015; cited from earlier work

T1 sequence (Q9BYF1 18-805): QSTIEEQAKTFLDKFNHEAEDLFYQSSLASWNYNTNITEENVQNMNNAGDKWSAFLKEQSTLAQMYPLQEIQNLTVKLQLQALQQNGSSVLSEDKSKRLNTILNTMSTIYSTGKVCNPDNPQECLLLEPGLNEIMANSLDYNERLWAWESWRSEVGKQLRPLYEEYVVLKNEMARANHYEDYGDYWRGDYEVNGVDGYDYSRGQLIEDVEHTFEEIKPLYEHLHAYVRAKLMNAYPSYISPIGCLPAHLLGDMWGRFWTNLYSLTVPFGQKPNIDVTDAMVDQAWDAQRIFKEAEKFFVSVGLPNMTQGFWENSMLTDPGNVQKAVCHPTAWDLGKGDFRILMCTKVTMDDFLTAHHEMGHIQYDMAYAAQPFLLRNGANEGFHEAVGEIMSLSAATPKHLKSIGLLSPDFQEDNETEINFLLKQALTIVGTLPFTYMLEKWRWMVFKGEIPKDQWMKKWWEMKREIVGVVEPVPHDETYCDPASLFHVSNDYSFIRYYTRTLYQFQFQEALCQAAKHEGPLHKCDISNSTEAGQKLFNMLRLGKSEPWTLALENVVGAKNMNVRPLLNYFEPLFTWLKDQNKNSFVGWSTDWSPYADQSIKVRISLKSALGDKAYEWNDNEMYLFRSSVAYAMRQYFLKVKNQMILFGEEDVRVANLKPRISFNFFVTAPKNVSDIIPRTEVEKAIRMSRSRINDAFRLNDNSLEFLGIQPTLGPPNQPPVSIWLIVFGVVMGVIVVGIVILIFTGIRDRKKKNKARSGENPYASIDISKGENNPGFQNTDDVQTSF

For `O=C1[C@@H]2[C@H]3CC[C@H](C3)[C@@H]2C(=O)N1C[C@@H]1CCCC[C@H]1CN1CCN(c2nsc3ccccc23)CC1` [Lurasidone, lurasidone], the “effect on viral replication” value (SARS-CoV-2 [1]) was “did not affect viral replication”, the “inhibition of viral replication” value (SARS-CoV-2 [1]) was 78% and 79% and 40% and the inhibition at 5 µM (SARS-CoV-2 [1]; Severe acute respiratory syndrome coronavirus 2, 24 h, read-out: inhibition of viral replication) was 76%. For the same molecule, the virucidal activity (SARS-CoV-2 [2]) was “did not show any significant virucidal activity”, the viability at 24 h, 10 µM [3] was about 80% and the toxicity (HEK293-ACE2 cells) was ~ 40%. For the same molecule, the “inhibition of transduction (GFP-positive cells)” value (from here on “inhibition of transduction”) [4] was “active”, the “inhibition of transduction” value [5] was “able to inhibit” and the “inhibition of transduction” value [6] was “not effective”. The “modification in the ACE2 levels” value [7] was “no significant modification”, the “direct binding to rhACE2 (SPR)” value [8] was “not able to bind” and the EC50 (HCoV-OC43 [9]; Betacoronavirus 1, OC43, MRC5, 16 h, read-out: EC50 (mean ± SD), viral marker NP (nucleoprotein), MRC-5 cells, MOI 0.001, 16 hours) was 8.3 µM. It also gave an EC50 (HCoV-OC43 [9]; Betacoronavirus 1, OC43, MRC5, 16 h, read-out: EC50 (mean ± SD), viral marker dsRNA, MRC-5 cells, MOI 0.001, 16 hours) of 8.5 µM, an EC90 (HCoV-OC43 [9]; Betacoronavirus 1, OC43, MRC5, read-out: EC90 (mean ± SD), viral marker NP (nucleoprotein), MRC-5 cells) of 23.5 µM and an EC90 (HCoV-OC43 [9]; Betacoronavirus 1, OC43, MRC5, read-out: EC90 (mean ± SD), viral marker dsRNA, MRC-5 cells) of 11.9 µM. The EC50 (HCoV-OC43 [9]; Betacoronavirus 1, OC43, both markers (NP and dsRNA)) was about 8 µM, the EC99 dose (HCoV-OC43 [9]; MRC-5 cells, HCoV-OC43) was 50 µM and the “SI (CC50/EC50)” value (HCoV-OC43 [9]; viral marker NP) was over 120.5. For the same molecule, the “SI (CC50/EC50)” value (HCoV-OC43 [9]; viral marker dsRNA) was over 117.6, the CC50 [10] was over 1000 µM and the “reduction of virus titer” value (HCoV-OC43 [11]; 18 hours post-infection treatment, p < 0.001) was “significant reduction”. The “antiviral activity, virus released in supernatant” value (HCoV-OC43 [11]; co-treatment 1 hour during virus inoculum) was “not active”, the “inhibition of virus production” value (HCoV-OC43 [11]; post-treatment 1, 4, 18 hours after infection, MRC-5, MOI 0.1) was “significantly inhibited virus production” and the “antiviral activity, virus released in supernatant” value (HCoV-OC43 [11]; pre-treatment 1 hour before infection) was “not active”. For the same molecule, the intrinsic virucidal activity (HCoV-OC43 [12]) was “not endowed with intrinsic virucidal activity”, the “inhibition of virus entry into the host cell” value (HCoV-OC43 [13]) was “does not act during the early steps of virus infection” and the IC50 (PL-Pro SARS-CoV-2) was 0.12 ± 0.03 µM. It also gave an IC50 (RdRp SARS-CoV-2; 50 nM enzyme) of over 100 µM, a remaining activity at 100 µM (RdRp SARS-CoV-2; in the presence of 100 µM, read-out: Percentage of control activity, RdRp) of 100% and an IC50 (3CL-Pro SARS-CoV-2) of over 100 µM. The remaining activity at 100 µM (3CL-Pro SARS-CoV-2; in the presence of 100 µM, read-out: Percentage of control activity, 3CL-Pro) was 87% and the “tolerability in clinical trials” value [14] was “good tolerability”.
